From publication PMC10778198, “First-in-Human Dose-Escalation Study of the Novel Oral Depsipeptide Class I-Targeting HDAC Inhibitor Bocodepsin (OKI-179) in Patients with Advanced Solid Tumors” (Cancers, 2023)

System: patients with advanced solid tumors
Assay: phase I dose escalation: safety, DLT, MTD, RP2D (CTCAE v. 5)
Format: in vivo
Settings: 4:3
Text: Subsequent dosing cohorts were enrolled using a standard 3 + 3 design.
If any patient in any cohort of three patients developed a DLT during cycle 1, an additional three patients were recruited to expand the cohort to up to six evaluable patients. If two or more patients in any expanded cohort developed a DLT, this dose was considered non-tolerated, and dose escalation was discontinued. The MTD was defined as the highest dose level for which no more than one of six patients experienced a DLT.
Patients were continuously evaluated for adverse events throughout the study using the Common Terminology Criteria of Adverse Events (CTCAE v. 5). The patients underwent a clinical history and physical examination, an ECOG PS, a complete blood count (CBCs), chemistry, coagulation studies, urinalysis, a serum pregnancy test (as applicable), a triplicate ECG, an ophthalmology examination, and baseline tumor assessment at screening. During cycle 1, weekly history and physical examination, CBC, chemistry, coagulation parameters, urinalysis, and triplicate ECGs were performed; in subsequent cycles, weekly labs were limited to a CBC. Repeat ophthalmology examinations were performed at cycle 3, day 1, and at the end of treatment. Repeat tumor assessment was performed every 2 cycles (6 weeks) in accordance with RECIST 1.1.

## CC(C)[C@H](N)C(=O)SCC/C=C/[C@@H]1CC(=O)NCc2nc(cs2)C(=O)NC(C)(C)C(=O)N[C@@H](C(C)C)C(=O)O1 [OKI-179, Bocodepsin]
30 mg–210 mg (n = 8), G1
  TEAE: Anemia: 0 n (%)
  TEAE: Back pain: 1 (13) n (%)
  TEAE: Cough: 2 (25) n (%)
  TEAE: Decreased appetite: 3 (38) n (%)
  TEAE: Diarrhea: 5 (63) n (%)
  TEAE: Dyspnea: 2 (25) n (%)
  TEAE: ECG QT prolonged: 0 n (%)
  TEAE: Fatigue: 2 (25) n (%)
  TEAE: Headache: 2 (25) n (%)
  TEAE: Hypokalaemia: 1 (13) n (%)
  TEAE: Muscular weakness: 0 n (%)
  TEAE: Nasal congestion: 1 (13) n (%)
  TEAE: Nausea: 5 (63) n (%)
  TEAE: Platelet count decreased: 0 n (%)
  TEAE: Proteinuria: 0 n (%)
  TEAE: Pyrexia: 2 (25) n (%)
  TEAE: Vomiting: 4 (50) n (%)
  TEAE: Weight decreased: 1 (13) n (%)
30 mg–210 mg (n = 8), G2
  TEAE: Anemia: 2 (25) n (%)
  TEAE: Back pain: 0 n (%)
  TEAE: Cough: 1 (13) n (%)
  TEAE: Decreased appetite: 1 (13) n (%)
  TEAE: Diarrhea: 0 n (%)
  TEAE: Dyspnea: 0 n (%)
  TEAE: ECG QT prolonged: 0 n (%)
  TEAE: Fatigue: 1 (13) n (%)
  TEAE: Headache: 0 n (%)
  TEAE: Hypokalaemia: 0 n (%)
  TEAE: Muscular weakness: 1 (13) n (%)
  TEAE: Nausea: 0 n (%)
  TEAE: Platelet count decreased: 0 n (%)
  TEAE: Proteinuria: 0 n (%)
  TEAE: Pyrexia: 0 n (%)
  TEAE: Vomiting: 0 n (%)
  TEAE: Weight decreased: 1 (13) n (%)
30 mg–210 mg (n = 8), G3
  TEAE: Anemia: 2 (25) n (%)
  TEAE: Back pain: 0 n (%)
  TEAE: Cough: 0 n (%)
  TEAE: Decreased appetite: 0 n (%)
  TEAE: Diarrhea: 0 n (%)
  TEAE: Dyspnea: 0 n (%)
  TEAE: ECG QT prolonged: 1 (13) n (%)
  TEAE: Fatigue: 1 (13) n (%)
  TEAE: Headache: 0 n (%)
  TEAE: Hypokalaemia: 0 n (%)
  TEAE: Muscular weakness: 0 n (%)
  TEAE: Nausea: 0 n (%)
  TEAE: Platelet count decreased: 0 n (%)
  TEAE: Proteinuria: 0 n (%)
  TEAE: Pyrexia: 0 n (%)
  TEAE: Vomiting: 0 n (%)
  TEAE: Weight decreased: 0 n (%)
270 mg (n = 3), G1
  TEAE: Anemia: 0 n (%)
  TEAE: Back pain: 0 n (%)
  TEAE: Cough: 0 n (%)
  TEAE: Decreased appetite: 0 n (%)
  TEAE: Diarrhea: 0 n (%)
  TEAE: Dyspnea: 0 n (%)
  TEAE: ECG QT prolonged: 0 n (%)
  TEAE: Fatigue: 1 (33) n (%)
  TEAE: Headache: 0 n (%)
  TEAE: Hypokalaemia: 0 n (%)
  TEAE: Muscular weakness: 1 (33) n (%)
  TEAE: Nausea: 1 (33) n (%)
  TEAE: Platelet count decreased: 1 (33) n (%)
  TEAE: Proteinuria: 0 n (%)
  TEAE: Pyrexia: 0 n (%)
  TEAE: Vomiting: 0 n (%)
  TEAE: Weight decreased: 0 n (%)
270 mg (n = 3), G2
  TEAE: Anemia: 0 n (%)
  TEAE: Back pain: 0 n (%)
  TEAE: Cough: 0 n (%)
  TEAE: Decreased appetite: 0 n (%)
  TEAE: Diarrhea: 0 n (%)
  TEAE: Dyspnea: 0 n (%)
  TEAE: ECG QT prolonged: 0 n (%)
  TEAE: Fatigue: 1 (33) n (%)
  TEAE: Headache: 0 n (%)
  TEAE: Hypokalaemia: 0 n (%)
  TEAE: Muscular weakness: 0 n (%)
  TEAE: Nasal congestion: 0 n (%)
  TEAE: Nausea: 0 n (%)
  TEAE: Platelet count decreased: 0 n (%)
  TEAE: Proteinuria: 0 n (%)
  TEAE: Pyrexia: 0 n (%)
  TEAE: Vomiting: 0 n (%)
  TEAE: Weight decreased: 0 n (%)
270 mg (n = 3), G3
  TEAE: Anemia: 1 (33) n (%)
  TEAE: Back pain: 0 n (%)
  TEAE: Cough: 0 n (%)
  TEAE: Decreased appetite: 0 n (%)
  TEAE: Diarrhea: 0 n (%)
  TEAE: Dyspnea: 0 n (%)
  TEAE: ECG QT prolonged: 0 n (%)
  TEAE: Fatigue: 0 n (%)
  TEAE: Headache: 0 n (%)
  TEAE: Hypokalaemia: 0 n (%)
  TEAE: Muscular weakness: 0 n (%)
  TEAE: Nasal congestion: 0 n (%)
  TEAE: Nausea: 0 n (%)
  TEAE: Platelet count decreased: 0 n (%)
  TEAE: Proteinuria: 0 n (%)
  TEAE: Pyrexia: 1 (33) n (%)
  TEAE: Vomiting: 0 n (%)
  TEAE: Weight decreased: 0 n (%)
350 mg (n = 3), G1
  TEAE: Anemia: 1 (33) n (%)
  TEAE: Back pain: 0 n (%)
  TEAE: Cough: 0 n (%)
  TEAE: Decreased appetite: 0 n (%)
  TEAE: Diarrhea: 0 n (%)
  TEAE: Dyspnea: 1 (33) n (%)
  TEAE: ECG QT prolonged: 0 n (%)
  TEAE: Fatigue: 0 n (%)
  TEAE: Headache: 0 n (%)
  TEAE: Hypokalaemia: 0 n (%)
  TEAE: Muscular weakness: 0 n (%)
  TEAE: Nausea: 1 (33) n (%)
  TEAE: Platelet count decreased: 2 (67) n (%)
  TEAE: Proteinuria: 0 n (%)
  TEAE: Pyrexia: 0 n (%)
  TEAE: Vomiting: 0 n (%)
  TEAE: Weight decreased: 0 n (%)
350 mg (n = 3), G2
  TEAE: Anemia: 0 n (%)
  TEAE: Back pain: 0 n (%)
  TEAE: Cough: 0 n (%)
  TEAE: Decreased appetite: 1 (33) n (%)
  TEAE: Diarrhea: 0 n (%)
  TEAE: Dyspnea: 0 n (%)
  TEAE: ECG QT prolonged: 0 n (%)
  TEAE: Fatigue: 0 n (%)
  TEAE: Headache: 0 n (%)
  TEAE: Hypokalaemia: 1 (33) n (%)
  TEAE: Muscular weakness: 1 (33) n (%)
  TEAE: Nasal congestion: 0 n (%)
  TEAE: Nausea: 1 (33) n (%)
  TEAE: Platelet count decreased: 0 n (%)
  TEAE: Proteinuria: 0 n (%)
  TEAE: Pyrexia: 0 n (%)
  TEAE: Vomiting: 1 (33) n (%)
  TEAE: Weight decreased: 0 n (%)
350 mg (n = 3), G3
  TEAE: Anemia: 0 n (%)
  TEAE: Back pain: 1 (33) n (%)
  TEAE: Cough: 0 n (%)
  TEAE: Decreased appetite: 0 n (%)
  TEAE: Diarrhea: 0 n (%)
  TEAE: Dyspnea: 0 n (%)
  TEAE: ECG QT prolonged: 1 (33) n (%)
  TEAE: Fatigue: 1 (33) n (%)
  TEAE: Headache: 0 n (%)
